Measurements taken from PubChem BioAssay (NCI).
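Values below derive from 48-hour exposures of cells grown in 96-well plates, with endpoints linearly interpolated between the two concentrations bracketing the appropriate inhibition level. Here, GI50 denotes the concentration required for 50% inhibition of growth. TGI is the concentration that stops growth completely.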

What was measured:
Assay in all cases: inhibition of tumour cell growth, NCI panel, 48 h
A549 NSCLC = system: A549 NSCLC
SK-MEL-2 melanoma = system: SK-MEL-2 melanoma
SK-MEL-28 melanoma = system: SK-MEL-28 melanoma
M14 melanoma = system: M14 melanoma
MOLT-4 leukemia = system: MOLT-4 leukemia
CCRF-CEM leukemia = system: CCRF-CEM leukemia
OVCAR-5 ovarian = system: OVCAR-5 ovarian
OVCAR-8 ovarian = system: OVCAR-8 ovarian
UACC-62 melanoma = system: UACC-62 melanoma
LOX IMVI melanoma = system: LOX IMVI melanoma

`Cc1ncc(CO)c(C=NCCCCCCN=Cc2c(CO)cnc(C)c2O)c1O` showed a TGI (A549 NSCLC) greater than 100 µM, a TGI (SK-MEL-2 melanoma) greater than 100 µM and a TGI (SK-MEL-28 melanoma) greater than 100 µM. The TGI (M14 melanoma) was greater than 100 µM, the TGI (MOLT-4 leukemia) was greater than 100 µM and the TGI (CCRF-CEM leukemia) was greater than 100 µM. It also gave a TGI (OVCAR-5 ovarian) greater than 100 µM, a TGI (OVCAR-8 ovarian) greater than 100 µM and a TGI (UACC-62 melanoma) greater than 100 µM. For the same compound, the TGI (LOX IMVI melanoma) was greater than 100 µM.
`Cc1ccc(S(=O)(=O)Nc2cc(Sc3ccccc3)c(O)c3ccccc23)cc1` was tested, and the GI50 (A549 NSCLC) was 12.3 µM, the TGI (A549 NSCLC) was 28.5 µM and the GI50 (SK-MEL-2 melanoma) was 3.73 µM. It also gave a TGI (SK-MEL-2 melanoma) of 16 µM, a GI50 (SK-MEL-28 melanoma) of 4.4 µM and a TGI (SK-MEL-28 melanoma) of 15 µM. For the same compound, the GI50 (M14 melanoma) was 6.49 µM, the TGI (M14 melanoma) was 19.9 µM and the GI50 (MOLT-4 leukemia) was 1.96 µM. It also gave a TGI (MOLT-4 leukemia) of 5.62 µM, a GI50 (CCRF-CEM leukemia) of 2.4 µM and a TGI (CCRF-CEM leukemia) of 16.6 µM. For the same compound, the GI50 (OVCAR-5 ovarian) was 7.11 µM, the TGI (OVCAR-5 ovarian) was 21.3 µM and the GI50 (OVCAR-8 ovarian) was 2.28 µM. For the same compound, the TGI (OVCAR-8 ovarian) was 5.88 µM, the GI50 (UACC-62 melanoma) was 2.41 µM and the TGI (UACC-62 melanoma) was 6.72 µM. For the same compound, the GI50 (LOX IMVI melanoma) was 2.34 µM and the TGI (LOX IMVI melanoma) was 7.96 µM.
Work on `COc1cc(Cc2ccc3c(c2C#N)N(C)c2ccccc2S3)cc(OC)c1OC` yielded a TGI (A549 NSCLC) greater than 100 µM, a TGI (SK-MEL-2 melanoma) greater than 100 µM and a TGI (SK-MEL-28 melanoma) greater than 100 µM. It also gave a TGI (M14 melanoma) greater than 100 µM, a TGI (MOLT-4 leukemia) greater than 100 µM and a TGI (CCRF-CEM leukemia) greater than 100 µM. The TGI (OVCAR-5 ovarian) was greater than 100 µM, the TGI (OVCAR-8 ovarian) was greater than 100 µM and the TGI (LOX IMVI melanoma) was greater than 100 µM.
With `Cc1nc(N(CCO)CCO)c2sc(=S)n(-c3ccccc3)c2n1` the TGI (A549 NSCLC) was greater than 100 µM, the TGI (SK-MEL-2 melanoma) was greater than 100 µM and the TGI (SK-MEL-28 melanoma) was greater than 100 µM. It also gave a TGI (MOLT-4 leukemia) greater than 100 µM, a TGI (CCRF-CEM leukemia) greater than 100 µM and a TGI (OVCAR-5 ovarian) greater than 100 µM. For the same compound, the TGI (OVCAR-8 ovarian) was greater than 100 µM and the TGI (UACC-62 melanoma) was greater than 100 µM.
Work on `COc1cc(C2S/C(=C/c3ccccc3)C(=O)N2c2ccccc2Cl)cc(OC)c1OC` (stereo not given) yielded a TGI (A549 NSCLC) greater than 100 µM, a TGI (SK-MEL-2 melanoma) of 39.7 µM and a TGI (SK-MEL-28 melanoma) greater than 100 µM. It also gave a TGI (M14 melanoma) of 60.5 µM, a TGI (MOLT-4 leukemia) greater than 100 µM and a TGI (OVCAR-5 ovarian) greater than 100 µM. For the same compound, the TGI (OVCAR-8 ovarian) was 49.8 µM, the TGI (UACC-62 melanoma) was greater than 100 µM and the TGI (LOX IMVI melanoma) was 44.9 µM.
For `CN(CCO)/N=N/c1nc[nH]c1C(N)=O`, the TGI (A549 NSCLC) was greater than 100 µM, the TGI (SK-MEL-2 melanoma) was greater than 100 µM and the TGI (SK-MEL-28 melanoma) was greater than 100 µM. It also gave a TGI (M14 melanoma) greater than 100 µM, a TGI (MOLT-4 leukemia) greater than 100 µM and a TGI (CCRF-CEM leukemia) greater than 100 µM. The TGI (OVCAR-5 ovarian) was greater than 100 µM, the TGI (OVCAR-8 ovarian) was greater than 100 µM and the TGI (UACC-62 melanoma) was greater than 100 µM. The TGI (LOX IMVI melanoma) was greater than 100 µM.
`C/C(=N\NC(=S)Nc1ccc(Cl)cc1)c1nc2ncccc2[nH]1` showed a TGI (A549 NSCLC) greater than 100 µM, a TGI (SK-MEL-2 melanoma) of 22.5 µM and a TGI (SK-MEL-28 melanoma) of 13.3 µM. For the same compound, the TGI (M14 melanoma) was 6.54 µM, the TGI (MOLT-4 leukemia) was 22.2 µM and the TGI (OVCAR-5 ovarian) was 21.3 µM. The TGI (UACC-62 melanoma) was 12.8 µM and the TGI (LOX IMVI melanoma) was 13.1 µM.
With `O=c1oc2c(ccc3c(O)cccc32)c2c1CCCC2` the TGI (A549 NSCLC) was greater than 100 µM, the TGI (SK-MEL-2 melanoma) was greater than 100 µM and the TGI (SK-MEL-28 melanoma) was greater than 100 µM. The TGI (M14 melanoma) was greater than 100 µM, the TGI (MOLT-4 leukemia) was greater than 100 µM and the TGI (CCRF-CEM leukemia) was greater than 100 µM. For the same compound, the TGI (OVCAR-5 ovarian) was greater than 100 µM, the TGI (OVCAR-8 ovarian) was greater than 100 µM and the TGI (UACC-62 melanoma) was 27.2 µM. For the same compound, the TGI (LOX IMVI melanoma) was greater than 100 µM.
Compound `BrC1=CN2C[n+]3cc(Br)c4ccccc4c3N=C2c2ccccc21` has a TGI (A549 NSCLC) greater than 100 µM, a TGI (SK-MEL-2 melanoma) of 22.3 µM and a TGI (SK-MEL-28 melanoma) of 6.7 µM. It also gave a TGI (M14 melanoma) of 18.4 µM, a TGI (MOLT-4 leukemia) of 33.2 µM and a TGI (CCRF-CEM leukemia) of 34.4 µM. The TGI (OVCAR-5 ovarian) was 48.7 µM, the TGI (OVCAR-8 ovarian) was 38.6 µM and the TGI (UACC-62 melanoma) was 20.9 µM. The TGI (LOX IMVI melanoma) was 34.2 µM.
For `CCOC(=O)/C(=N/Nc1ccc(Cl)cc1)N1C(=S)C=C(C)NN(C)C1=S`, the TGI (A549 NSCLC) was greater than 100 µM, the TGI (SK-MEL-2 melanoma) was greater than 100 µM and the TGI (SK-MEL-28 melanoma) was greater than 100 µM. It also gave a TGI (M14 melanoma) greater than 100 µM, a TGI (MOLT-4 leukemia) greater than 100 µM and a TGI (CCRF-CEM leukemia) greater than 100 µM. It also gave a TGI (OVCAR-5 ovarian) greater than 100 µM, a TGI (OVCAR-8 ovarian) of 73.1 µM and a TGI (UACC-62 melanoma) of 90.6 µM.
With `COc1cc2nc(N3CCC[C@@H](NC4=CC(=O)c5ccccc5C4=O)C3)nc(N)c2cc1OC` the GI50 (A549 NSCLC) was 1.97 µM, the TGI (A549 NSCLC) was 3.8 µM and the GI50 (SK-MEL-28 melanoma) was 1.72 µM. The TGI (SK-MEL-28 melanoma) was 3.39 µM, the GI50 (MOLT-4 leukemia) was 2.34 µM and the TGI (MOLT-4 leukemia) was 5.55 µM. For the same compound, the GI50 (CCRF-CEM leukemia) was 1.96 µM, the TGI (CCRF-CEM leukemia) was 4.56 µM and the GI50 (OVCAR-5 ovarian) was 2.26 µM. The TGI (OVCAR-5 ovarian) was 4.85 µM, the GI50 (UACC-62 melanoma) was 2.01 µM and the TGI (UACC-62 melanoma) was 4.25 µM.
`NC(=S)N/N=C/c1ccc(OC(=O)COc2ccccc2Cl)cn1` gave a TGI (A549 NSCLC) greater than 100 µM, a TGI (SK-MEL-2 melanoma) greater than 100 µM and a TGI (SK-MEL-28 melanoma) greater than 100 µM. It also gave a TGI (MOLT-4 leukemia) greater than 88.7 µM, a TGI (CCRF-CEM leukemia) greater than 65.8 µM and a TGI (OVCAR-5 ovarian) of 97.9 µM. It also gave a TGI (OVCAR-8 ovarian) greater than 100 µM, a TGI (UACC-62 melanoma) of 42.7 µM and a TGI (LOX IMVI melanoma) greater than 100 µM.
Compound `CCOC(=O)C(=O)Nc1cccc(C)c1C` has a TGI (A549 NSCLC) greater than 100 µM, a TGI (SK-MEL-2 melanoma) greater than 100 µM and a TGI (SK-MEL-28 melanoma) greater than 100 µM. It also gave a TGI (M14 melanoma) greater than 100 µM, a TGI (MOLT-4 leukemia) greater than 100 µM and a TGI (CCRF-CEM leukemia) greater than 100 µM. It also gave a TGI (OVCAR-5 ovarian) greater than 100 µM, a TGI (OVCAR-8 ovarian) greater than 100 µM and a TGI (UACC-62 melanoma) greater than 100 µM.
Compound `C/C([O-])=C(/c1nc(-c2ccc([N+](=O)[O-])o2)no1)[n+]1cc(C)ccc1C` has a TGI (A549 NSCLC) of 30.8 µM, a TGI (SK-MEL-2 melanoma) of 19.7 µM and a TGI (SK-MEL-28 melanoma) of 25.6 µM. It also gave a TGI (MOLT-4 leukemia) greater than 100 µM, a TGI (CCRF-CEM leukemia) greater than 100 µM and a TGI (OVCAR-5 ovarian) of 37.5 µM. For the same compound, the TGI (OVCAR-8 ovarian) was greater than 76.6 µM, the TGI (UACC-62 melanoma) was 21.3 µM and the TGI (LOX IMVI melanoma) was 21.8 µM.
`COC(=O)C1=C(O)C(C(=O)OC)[C@@]2(O)[C@@H](C(=O)OC)CC[C@@H]1[C@@H]2C(=O)OC` (stereo not given in full) gave a TGI (SK-MEL-2 melanoma) of 49.3 µM, a TGI (SK-MEL-28 melanoma) greater than 100 µM and a TGI (M14 melanoma) of 62.6 µM. The TGI (MOLT-4 leukemia) was greater than 100 µM, the TGI (CCRF-CEM leukemia) was greater than 100 µM and the TGI (OVCAR-5 ovarian) was 70.2 µM. The TGI (UACC-62 melanoma) was greater than 100 µM and the TGI (LOX IMVI melanoma) was 76.8 µM.
`O=C(O)CN=c1c2ccccc2n(O)c2ccccc12` gave a TGI (A549 NSCLC) greater than 100 µM, a TGI (SK-MEL-2 melanoma) greater than 100 µM and a TGI (SK-MEL-28 melanoma) greater than 100 µM. For the same compound, the TGI (M14 melanoma) was greater than 100 µM, the TGI (MOLT-4 leukemia) was greater than 100 µM and the TGI (CCRF-CEM leukemia) was 53.6 µM. It also gave a TGI (OVCAR-5 ovarian) greater than 100 µM, a TGI (OVCAR-8 ovarian) greater than 100 µM and a TGI (UACC-62 melanoma) greater than 100 µM. The TGI (LOX IMVI melanoma) was greater than 100 µM.
